In patent US5968952A, “Farnesyl transferase inhibiting 2-quinolone derivatives” (Janssen Pharmaceutica, N.V., priority 1995, dated 1999):

Experiments:
[1] = target: T1, Human farnesyl protein transferase (Homo sapiens, UniProt P49354+P49356); assay: In Vitro Assay for Inhibition of Farnesyl Protein Transferase ([3H] Scintillation Proximity Assay); type: biochemical; conditions: Table 7; human enzyme from KHOS cells; biotinylated lamin B peptide substrate; 60 min, 37° C.; read-out: IC50 (concentration of test compound producing 50% inhibition of enzyme activity)
T1 construct: were used as a source of human enzyme; endogenous in cells; host or cells: Kirsten virus transformed human osteosarcoma (KHOS) cells (ATCC), grown as monolayers or as solid tumors in nude mice; ammonium sulfate fraction and Q Sepharose pool
Experimental: In Vitro Assay for Inhibition of Farnesyl Protein Transferase Human farnesyl protein transferase was prepared essentially as described ([…] al., Methods: A Companion to Methods in Enzymology vol 1, 241-245, 1990). Kirsten virus transformed human osteosarcoma (KHOS) cells (American Type Culture Collection, Rockvill, Md., USA) grown as solid tumors in nude mice or grown as monolayer cell cultures were used as a source of human enzyme. Briefly, cells or tumors were homogenized in buffer containing 50 mM Tris, 1 mM EDTA, 1 mM EGTA and 0.2 mM phenylmethylsulfonylfluoride (pH 7.5). The homogenates were centrifuged 28,000× g for 60 min and the supernatants collected. A 30-50% ammonium sulfate […] prepared, and the resulting precipitate was resuspended in a small (10 to 20 ml) volume of dialysis buffer containing 20 mM Tris, 1 mM dithiothreitol and 20 μM ZnCl2. The ammonium sulfate fraction was dialyzed overnight against two changes of the same buffer. The dialyzed material was applied to a 10×1 cm Q Fast Flow Sepharose (Pharmacia LKB Biotechnology Inc., Piscataway, N.J., USA) which had been preequilibrated with 100 ml of dialysis buffer supplemented with 0.05M NaCl. The column was washed with an additional 50 ml of dialysis buffer plus 0.05M NaCl followed by a gradient from 0.05M to 0.25M NaCl prepared in dialysis buffer. The enzyme activity was eluted with a linear gradient of 0.25 to 1.0M NaCl prepared in the dialysis buffer. Fractions containing 4 to 5 ml volumes of column eluate were collected and analyzed for farnesyl protein transferase activity. Fractions with enzyme activity were pooled and supplemented with 100 μM ZnCl2. Enzyme samples were stored frozen at -70° C. The activity of farnesyl protein transferase was measured using the Farnesyl Transferase [^3 H] Scintillation Proximity Assay (Amersham International plc., England) under the conditions specified by the manufacturer. […] The reaction mixture was warmed to 37° C. The enzyme reaction was started by adding 20 μl of diluted human farnesyl protein transferase. […] Reactions were terminated by the addition of STOP/scintillation proximity bead reagent (Amersham). The reaction product [^3 H]-farnesyl-(Cys)-biotin lamin B peptide was captured on the streptavidin linked scintillation proximity bead. The amount of [^3 H]-farnesyl-(Cys)-biotin lamin B peptide synthesized in the presence or absence of test compounds was quantified as cpm by counting on a Wallac Model 1480 Microbeta Liquid Scintillation Counter. The cpm of product was considered to be farnesyl protein transferase activity. The protein farnesyl transferase activity observed in the presence of test compound was normalized to farnesyl transferase activity in the presence of 10% DMSO and expressed as per cent inhibition. […] W. Johnson Pharmaceutical Research Institue (Spring House, Pa., USA) on a VAX computer.

[2] = tested on: NIH 3T3 cells transformed by the T24 activated human H-ras gene; assay: Ras-Transformed Cell Phenotype Reversion Assay; type: cell-based, mouse; conditions: NIH3T3; Table 8; T24 H-ras transformed NIH 3T3 cells; 72 hours; cell counts
Source text: "Ras-Transformed Cell Phenotype Reversion Assay" Insertion of activated oncogenes such as the mutant ras gene into mouse NIH 3T3 cells converts the cells to a transformed phenotype. The cells become tumorigenic, display anchorage independent growth in semi-solid medium and lose contact inhibition. Loss of contact inhibition produces cell cultures which no longer form uniform monolayers. Rather, the cells pile up into multicellular nodules and grow to very high saturation densities in plastic tissue culture dishes. Agents such as protein farnesyl transferase inhibitors which revert the ras transformed phenotype restore the uniform monolayer growth pattern to cells in culture. This reversion is easily monitored by counting the number of cells in tissue culture plates. Transformed cells will achieve higher cell numbers than cells which have reverted to an untransformed phenotype. Compounds which revert the transformed phenotype should produce antitumor effects in tumors bearing ras gene mutations. Method Compounds are screened in tissue culture in NIH 3T3 cells transformed by the T24 activated human H-ras gene. Cells are seeded at an initial density of 200,000 cells per well (9.6 cm^2 surface area) in six-well cluster tissue culture plates. Test compounds are immediately added to 3.0 ml cell growth mediuim in a 3.0 μl volume of DMSO, with a final concentration of DMSO in the cell growth medium of 0.1%. […] Then the cells are detached in 1.0 ml trypsin-EDTA cell dissociation medium and counted on a Coulter particle counter. Measurements Cell numbers expressed as cells per well are measured using a Coulter Particle Counter. All cell counts were corrected for the initial cell input density by subtracting 200,000. Control cell counts=[cell counts from cells incubated with DMSO vehicle--200,000] Test compound cell counts=[cell counts from cells incubated with test compound--200,000]. [formula]

| IC50 [1] | SMILES | IC50 [2] |
| --- | --- | --- |
| 5.6 nM | Cn1c(=O)cc(-c2cccc(Cl)c2)c2cc(C(CO)(c3ccc(Cl)cc3)n3ccnc3)ccc21 (stereo not shown) [Compound 66] | 53 nM |
| 30 nM | CCC(c1ccc(Cl)cc1)(c1ccc2c(c1)c(-c1cccc(Cl)c1)cc(=O)n2C)n1ccnc1 (stereo not shown) [Compound 63] | 294 nM |
| 11 nM | Cc1cncn1C(C)(c1ccc(Cl)cc1)c1ccc2c(c1)c(-c1cccc(Cl)c1)cc(=O)n2C (stereo not shown) [Compound 64, 4-(3-chlorophenyl)-6-[1-(4-chlorophenyl)-1-(5-methyl-1H-imidazol-1-yl)ethyl]-1-methyl-2(1H)-quinolinone] | 133 nM |
| 7.2 nM | COCCn1c(=O)cc(-c2cccc(Cl)c2)c2cc(C(c3ccc(Cl)cc3)n3ccnc3)ccc21 (stereo not shown) [Compound 77, 4-(3-chlorophenyl)-6-[(4-chlorophenyl)(1H-imidazol-1-yl)methyl]-1-(2-methoxyethyl)-2(1H)-quinolinone ethanedioate (2:3) monohydrate] | 189 nM |
|  | Cc1cc(C(c2ccc(Cl)cc2)n2ccnc2)cc2c(-c3cccc(Cl)c3)cc(=O)n(C)c12 (stereo not shown) [Compound 89] | 445 nM |
| 15 nM | O=c1cc(-c2cccc(Cl)c2)c2cc(C(c3ccc(Cl)cc3)n3ccnc3)ccc2[nH]1 (single isomer, unassigned) [Compound 23] | 204 nM |
| 3.4 nM | Cn1c(=O)cc(-c2ccc3c(c2)OCO3)c2cc(C(c3ccc(Cl)cc3)n3ccnc3)ccc21 (stereo not shown) [Compound 83, 6-[(4-chlorophenyl)(1H-imidazol-1-yl)methyl]-4-(1,3-benzodioxol-5-yl)-1-methyl-2(1H)-quinolinone ethanedioate (1:1)] | 68 nM |
